According to patent publication US20210252175A1, “NOVEL COMPOUNDS FOR DIAGNOSIS” (AC IMMUNE SA, priority 2018, published 2021):
“Also recorded” adds a separate entry of the source. Like-named read-outs stand apart in the source and are kept apart here.

Legend:
[1] = target: T1, Recombinant human full-length wild-type aSyn fibrils (Homo sapiens, UniProt P37840); assay: Radio-binding competition assay on recombinant aSyn fibrils; settings: for improvement of Ki value on aSyn fibrils compared to compounds 70 and 71 of WO2017/153601: head-to-head within the same measurement; for binding to aSyn fibrils in comparison to Examples 70 and 71 of WO2017/153601: comparison of Ki values of Table 9; for Kd: read-out: Kd of the radioligand on aSyn fibrils
T1 construct: Recombinant human full-length wild-type aSyn bacterially expressed; purchased rPeptide, US
Protocol: Recombinant human full-length wild-type aSyn bacterially expressed was obtained from a commercial provider (rPeptide, US). Protein preparation was transferred into polycarbonate centrifuge tubes (8×51 mm; Beckman 355657) and centrifuged at 100,000 g (38,000 rounds per minute, RPM) in an ultracentrifuge (Beckman, XL100K) for 60 min at 4° C. using the pre-cooled 50.4 Ti rotor (Beckman) to pellet any aggregated material. Supernatant was transferred into a sterile, low retention tube at a final concentration of 5 mg/mL and final volume of 0.5 mL in PBS. The protein was placed in a Thermomixer (Eppendorf) and incubated for 7 days at 37° C. with orbital shaking at 1000 rpm to generate aSyn fibrils.
Material containing aSyn fibrils was transferred into polycarbonate centrifuge tubes (8×51 mm; Beckman 355657) and centrifuged at 100,000 g (38,000 RPM) in an ultracentrifuge (Beckman, XL100K) for 60 min at 4° C. using the pre-cooled 50.4 Ti rotor. The supernatant containing still monomeric aSyn was transferred into new tubes and its concentration was determined. The pellet was resuspended with equal volume of PBS and subjected to further rounds of ultracentrifugation until the concentration obtained for the supernatant was below 0.1 mg/mL. The pellet obtained at the last round of ultracentrifugation containing aSyn fibrils was aliquoted and stored at −80° C. until use. Aggregated aSyn was used at a concentration of 1 μM in radiobinding assays.
Determination of the Binding Affinity (Ki) by Radio-Binding Competition Assay Recombinant aSyn fibrils at concentration of 1 μM were incubated with [^3H] Example 69 disclosed in WO2017/153601, used as aSyn reference binder, at concentrations between 25 nM and 35 nM. The example compounds of this invention were incubated at increasing concentrations in the range 0.4 nM to 2 μM for 120 minutes at 25° C. 90 μL of samples in duplicates were then filtered under vacuum on a GF/C filter plate (PerkinElmer 6005174) to trap the aSyn fibrils with the bound radio-ligand, and washed five times with Tris 50 mM buffer pH 7-5. The GF/C filters were then vacuum-dried, 50 μL scintillation liquid (Ultimate Gold MB, PerkinElmer) was added in each well, and the filters were analyzed on a Microbeta2 device. Non-specific signal was determined with an excess of un-labeled ligand and specific binding was calculated by subtracting the non-specific signal from the total signal. Competition was calculated as percent, where 0% was defined as the specific binding in the presence of vehicle (0.1% DMSO in 50 mM Tris in 0.9% NaCl, 0.1% BSA) and 100% as the values obtained in the presence of excess cold Example 69 disclosed in WO2017/153601. All measurements were performed with at least two technical replicates. The K; values were calculated by nonlinear regression, one site specific binding using Prism V7 (GraphPad). Ki values to recombinant aSyn fibrils were determined in independent experiments and two different batches of aSyn fibrils, derived from the same source but different lots of monomeric aSyn. Results of radio-binding competition assay for the example compounds tested in parallel within the same experiment are shown in Table 9 as measurements A and B. Measurement A was performed on one batch of aSyn fibrils; the Kd for the radioligand [^3H] Example 69 disclosed in WO20171153601 for this batch of aSyn fibrils was 32 nM. Measurement B was performed on second batch of aSyn fibrils, the corresponding Kd for the radioligand [^3H] Example 69 disclosed in WO2017/153601 for the second batch of aSyn fibrils was 60 nM.

[2] = target: T2, Aβ pathological aggregates present in the human AD insoluble fractions (Homo sapiens, UniProt P05067); assay: Radio-binding competition assay on human AD insoluble fraction; settings: for Ki: radioligand [3H] Example 47 of WO2017/153601 at 7 nM
T2 construct: "4.7 g of frontal lobe tissue from post-mortem brain of one Alzheimer's disease (AD) patient"
Protocol: 4.7 g of frontal lobe tissue from post-mortem brain of one Alzheimer's disease (AD) patient were purchased from an external provider (Tissue Solutions Ltd., UK). The patient was a […] and died […]. The brain sample was collected 7.7 hours post-mortem and characterized for Braak disease stage (Braak, H.; Braak, E. Acta Neuropathol., 1991, 82, 239-259) as stage VI. For the preparation of the insoluble fractions, around 3 g of the AD human brain was thawed on ice and homogenized with 8.9 mL of homogenization buffer (0.75 M NaCl, 5 mM EDTA, 50 mM Tris-HCl, pH 7.5) supplemented with protease inhibitors (Complete; Roche 11697498001) in a glass Dounce homogenizer. The homogenization was performed at 4° C. The homogenate was transferred into polycarbonate centrifuge tubes (16×76 mm; Beckman 355603) and centrifuged at 100,000 g (38,000 RPM) in an ultracentrifuge (Beckman, XL100K) for 60 min at 4° C. using the pre-cooled 70.1 rotor (Beckman, 342184). Supernatants were discarded and pellets were re-suspended in 8.9 mL of homogenization buffer supplemented with 1% Triton X-100 (Sigma 93426) and processed with glass Dounce homogenizer at 4° C. The solution was then transferred into polycarbonate centrifuge bottles (16×76 mm; Beckman 355603) and centrifuged at 100,000 g (38,000 RPM) in an ultracentrifuge (Beckman, XL100K) for 60 min at 4° C. using the 70.1 Ti rotor. The process was repeated one more time (supernatants were discarded and pellets were re-suspended in 8.9 mL of homogenization buffer supplemented with 1% Triton X-100 and 1M sucrose processed with glass Dounce homogenizer at 4° C. The solution was then centrifuged at 100,000 g (38,000 RPM) for 60 min at 4° C. using the 70.1 Ti rotor). Supernatant was discarded and pellet was resuspended in 4 mL of PBS to obtain the insoluble fraction. The material was aliquoted and stored at −80° C. until use.
AD insoluble fractions diluted 1/100 were incubated in the presence of [^3H] Example 47 disclosed in WO2017/153601 used as Aβ reference binder, at a concentration of 7 nM and the example compounds of this invention were prepared at increasing concentrations in the range 0.4 nM to 2 μM for 120 minutes at 25° C. 90 μL of samples in duplicates were then filtered under vacuum on a GF/C filter plate (PerkinElmer 6005174) to trap the Aβ aggregates within the AD insoluble fractions with the bound radio-ligand, and washed five times with Tris 50 mM buffer pH 7-5. The GF/C filters were then vacuum-dried, 50 μL scintillation liquid (Ultimate Gold MB, PerkinElmer) was added in each well, and the filters were analyzed on a Microbeta2 device. Non-specific signal was determined with an excess of un-labeled ligand and specific binding was calculated by subtracting the non-specific signal from the total signal. Competition was calculated as percent, where 0% was defined as the specific binding in the presence of vehicle (0.1% DMSO in 50 mM Tris in 0.9% NaCl, 0.1% BSA) and 100% as the values obtained in the presence of excess cold Example 47 disclosed in WO2017/153601. The Ki values were calculated by nonlinear regression, one site specific binding using Prism V7 (GraphPad). Ki values to AD insoluble fraction were determined in independent experiments. Results of radio-binding competition assay on AD insoluble fraction are shown in Table 9 as measurements C and D. The Kd for the radioligand [^3H] Example 47 disclosed in WO2017/153601 on the AD insoluble fraction in measurements C and D was 8 nM.
Example compounds are ranked based on the measured Ki values to Aβ pathological aggregates present in the AD insoluble fractions.

[3] = measurement A, first batch of aSyn fibrils, radioligand [3H] Example 69 of WO2017/153601 (Kd 32 nM), read-out: Ki on aSyn Fibrils, measurement A
[4] = measurement B, second batch of aSyn fibrils, radioligand [3H] Example 69 of WO2017/153601 (Kd 60 nM), read-out: Ki on aSyn Fibrils, measurement B
[5] = measurement C, read-out: Ki on human AD-Insoluble Fraction, measurement C
[6] = measurement D, read-out: Ki on human AD-Insoluble Fraction, measurement D

T2 sequence (P05067 whole entry): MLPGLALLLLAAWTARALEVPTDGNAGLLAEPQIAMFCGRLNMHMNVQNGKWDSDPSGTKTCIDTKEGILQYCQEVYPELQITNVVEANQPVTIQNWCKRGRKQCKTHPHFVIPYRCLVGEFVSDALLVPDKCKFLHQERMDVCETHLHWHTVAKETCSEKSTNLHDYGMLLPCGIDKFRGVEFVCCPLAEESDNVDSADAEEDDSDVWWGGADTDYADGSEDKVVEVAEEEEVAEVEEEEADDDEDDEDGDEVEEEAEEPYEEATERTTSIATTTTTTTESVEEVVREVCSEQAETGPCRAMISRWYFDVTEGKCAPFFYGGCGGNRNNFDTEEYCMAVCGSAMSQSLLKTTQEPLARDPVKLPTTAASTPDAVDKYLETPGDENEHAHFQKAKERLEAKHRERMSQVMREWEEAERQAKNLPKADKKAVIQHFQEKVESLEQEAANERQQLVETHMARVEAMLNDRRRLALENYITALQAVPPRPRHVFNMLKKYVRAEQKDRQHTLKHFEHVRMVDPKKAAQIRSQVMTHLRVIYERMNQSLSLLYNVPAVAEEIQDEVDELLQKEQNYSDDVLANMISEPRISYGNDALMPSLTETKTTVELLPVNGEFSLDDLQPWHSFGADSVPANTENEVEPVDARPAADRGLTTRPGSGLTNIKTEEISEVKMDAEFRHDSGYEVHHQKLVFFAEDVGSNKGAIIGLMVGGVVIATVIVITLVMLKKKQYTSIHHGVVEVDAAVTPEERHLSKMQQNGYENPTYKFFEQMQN

Structure (SMILES)	Ki [1, 3]	Ki [1, 4]	Ki [2, 5]	Ki [2, 6]	binding to aSyn fibrils in comparison to Examples 70 and 71 of WO2017/153601 [1]	further results
CN1CCN(c2cc3sc(-c4ccc(N5CC[C@@H](F)C5)nc4)nc3cn2)C(=O)C1 [Example 1]	14.7 nM	31.9 nM	> 500 nM			improvement of Ki value on aSyn fibrils compared to compounds 70 and 71 of WO2017/153601 [1]: improved by at least twofold
CN1CCN(c2cc3sc(-c4ccc(N5CC[C@H](F)C5)nc4)nc3cn2)C(=O)C1 [Example 2]	12.2 nM	31.9 nM	> 500 nM	> 500 nM		improvement of Ki value on aSyn fibrils compared to compounds 70 and 71 of WO2017/153601 [1]: improved by at least twofold
CN1CCN(c2cc3sc(-c4ccc(N5CC(F)C5)nc4)nc3cn2)C(=O)C1 [Example 3A]		96.8 nM		> 500 nM	similar	
CNc1ncc(-c2nc3cnc(N4CCN(C)CC4=O)cc3s2)cc1F [Example 3B]	27.8 nM		50 to 500 nM	50 to 500 nM	improved	
CN1CCN(c2cc3sc(-c4cnc(N5CCC5)c(F)c4)nc3cn2)C(=O)C1 [Example 3C]	5.8 nM			> 500 nM	improved; also recorded: considerably greater affinity	
CN1CCN(c2cc3sc(-c4cnc(N5CC[C@@H](F)C5)nc4)nc3cn2)C(=O)C1 [Example 3D]	38.4 nM			> 500 nM	improved	
CN1CCN(c2ncc3nc(-c4ccc(N5CC[C@@H](F)C5)nc4)sc3n2)C(=O)C1 [Example 3]		28.3 nM	> 500 nM	> 500 nM		
CN1CCN(c2ccc3nc(-c4ccc(N5CC[C@@H](F)C5)nc4)sc3n2)C(=O)C1 [Example 4]						improvement of Ki value on aSyn fibrils compared to compounds 70 and 71 of WO2017/153601 [1]: improved by at least twofold
CN1CCN(c2ncc3nc(-c4ccc(N5CC[C@H](F)C5)nc4)sc3n2)C(=O)C1 [Example 4]		52.8 nM		> 500 nM		
CN1CCN(c2ccc3nc(-c4ccc(N5CC[C@@H](F)C5)nc4)sc3n2)C(=O)C1 [Example 5]		41.7 nM		> 500 nM		
CN1CCN(c2ccc3nc(-c4ccc(N5CC[C@H](F)C5)nc4)sc3n2)C(=O)C1 [Example 5]						improvement of Ki value on aSyn fibrils compared to compounds 70 and 71 of WO2017/153601 [1]: improved by at least twofold
CN1CCN(c2ncc3nc(-c4ccc(N5CC(F)C5)nc4)sc3n2)C(=O)C1 [Example 7A]	55.3 nM			> 500 nM	similar	
CN1CCN(c2ncc3nc(-c4ccc(N5CCC[C@@H](F)C5)nc4)sc3n2)C(=O)C1 [Example 7B]	31.3 nM			> 500 nM	improved	
CN1CCN(c2ncc3nc(-c4ccc(N5CCC[C@H](F)C5)nc4)sc3n2)C(=O)C1 [Example 7C]	34.2 nM		> 500 nM	> 500 nM	improved	
CN1CCN(c2ccc3nc(-c4ccc(N5CC[C@@H](F)C5)nc4)sc3c2)C(=O)C1 [Example 70 of WO2017/153601, reference compound]	39 nM	97.7 nM	> 500 nM			
CN1CCN(c2ccc3nc(-c4ccc(N5CC[C@H](F)C5)nc4)sc3c2)C(=O)C1 [Example 71 of WO2017/153601, reference compound]	46.9 nM	73.7 nM	> 500 nM			
[3H]C([3H])([3H])Nc1ccc(-c2ccc3cc(-c4cccnc4)sc3n2)cn1 [[^3H] Example 47 of WO2017/153601, reference compound]						Kd ([2]; measurements C and D, read-out: Kd of the radioligand on the AD insoluble fraction): 8 nM
[3H]C([3H])([3H])N1CCN(c2ccc3nc(-c4ccc(N5CCCC5)nc4)sc3c2)C(=O)C1 [[^3H] Example 69 of WO2017/153601, reference compound]						Kd ([1]; batch of aSyn fibrils of measurement A): 32 nM; Kd ([1]; second batch of aSyn fibrils, measurement B): 60 nM
